Laboratory results: patent publication US20060069132A1, “Azolecarboxamide herbicides” (priority 2004, published 2006)

Key:
[1] = test system: rice; test: Test B flooded paddy test; format: in vivo, Oryza sativa; settings: 1000 g ai/ha, scale 0 to 100 (0 no effect, 100 complete control)
Summary of the method: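 Scale 0–100: zero equals no visible effect, 100 complete control, judged by eye relative to controls. Timing: 13 to 15 days in greenhouse post-treatment. Growth stage at spraying: two leaves (paddy) or one to four leaves, 2–18 cm (postemergence).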

[2] = test system: velvetleaf; test: Test B pre-/postemergence herbicide test; format: in vivo, Abutilon theophrasti
Summary of the method: (§1)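 Formulation: non-phytotoxic solvent mix with surfactant. Timing: preemergence on seed and postemergence on 2–18 cm plants, applied concurrently. Readout after 13–15 d greenhouse: visual 0–100 control rating against controls.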

[3] = test system: barnyardgrass; test: Test B pre-/postemergence herbicide test; format: in vivo, Echinochloa crus-galli
Summary of the method: (§2)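 Evaluation is visual, comparing treated with control plants on a scale where 0 means no effect and 100 means full control. Treatments were preemergence, or postemergence on seedlings 2–18 cm tall, and held 13–15 days in the greenhouse.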

[4] = test system: smallflower umbrella sedge; test: Test C flooded paddy test; format: in vivo, Cyperus difformis; settings: for Plant response rating, Sedge, Umbrella: 500 g ai/ha, visual rating after 12 to 14 days
[5] = test system: cocklebur; test: Test B pre-/postemergence herbicide test; format: in vivo, Xanthium strumarium
Summary of the method: as §2

[6] = test system: wheat; test: Test B postemergence herbicide test; format: in vivo, Triticum aestivum; design: key to Wheat plant response rating: 0 = no effect, 100 = complete control
Summary of the method: (§3)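 Postemergence plants were sprayed with formulated test chemicals at 2 to 18 cm height (1- to 4-leaf stage); paddy species were grown to the 2-leaf stage. After 13 to 15 days in a greenhouse, injury was rated visually against untreated controls on a 0–100 scale (0 = no effect, 100 = complete control).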

[7] = test system: large crabgrass; test: Test B pre-/postemergence herbicide test; format: in vivo, Digitaria sanguinalis
Summary of the method: as §1

[8] = test system: ducksalad; test: Test B flooded paddy test; format: in vivo, Heteranthera limosa; settings: 1000 g ai/ha, scale 0 to 100 (0 no effect, 100 complete control)
Summary of the method: (§4)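 Each value is a visual 0–100 response rating taken against controls 13 to 15 days after treatment in the greenhouse. Plants received formulated chemical postemergence at the 1- to 4-leaf stage or, in flooded paddy, at the 2-leaf stage.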

[9] = test system: barnyardgrass; test: Test C flooded paddy test; format: in vivo, Echinochloa crus-galli; settings: for Plant response rating, Barnyardgrass: 500 g ai/ha, visual rating after 12 to 14 days
Summary of the method: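 Postemergence sprays applied to plants 2 to 18 cm tall (1- to 4-leaf stage); paddy species grown to 2-leaf stage under flooding. After 12 to 14 days in greenhouse, visual rating versus untreated controls on 0–100 scale (0 no effect, 100 complete control).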

[10] = test system: Surinam grass; test: Test B pre-/postemergence herbicide test; format: in vivo, Urochloa decumbens
Summary of the method: as §1

[11] = test system: pigweed; test: Test B pre-/postemergence herbicide test; format: in vivo, Amaranthus retroflexus
Summary of the method: as §1

[12] = test system: wild oat; test: Test B postemergence herbicide test; format: in vivo, Avena fatua
Summary of the method: as §3

[13] = test system: barnyardgrass; test: Test B flooded paddy test; format: in vivo, Echinochloa crus-galli; settings: 1000 g ai/ha, scale 0 to 100 (0 no effect, 100 complete control)
Summary of the method: as §4

[14] = test system: rice; test: Test B pre-/postemergence herbicide test; format: in vivo, Oryza sativa; settings: preemergence
Summary of the method: as §1

[15] = test system: giant foxtail; test: Test B pre-/postemergence herbicide test; format: in vivo, Setaria faberi
Summary of the method: as §1

[16] = test system: ducksalad; test: Test C flooded paddy test; format: in vivo, Heteranthera limosa; settings: for Plant response rating, Ducksalad: 500 g ai/ha, visual rating after 12 to 14 days
[17] = test system: corn; test: Test B pre-/postemergence herbicide test; format: in vivo, Zea mays
Summary of the method: as §1

[18] = test system: small flower umbrella sedge; test: Test B flooded paddy test; format: in vivo, Cyperus difformis; settings: 1000 g ai/ha, scale 0 to 100 (0 no effect, 100 complete control)
Summary of the method: as §4

[19] = test system: lambsquarters; test: Test B pre-/postemergence herbicide test; format: in vivo, Chenopodium album
Summary of the method: as §1

[20] = test system: blackgrass; test: Test B postemergence herbicide test; format: in vivo, Alopecurus myosuroides
Summary of the method: as §4

[21] = test system: morningglory; test: Test B pre-/postemergence herbicide test; format: in vivo, Ipomoea coccinea
Summary of the method: as §2

[22] = test system: rice; test: Test C flooded paddy test; format: in vivo, Oryza sativa; settings: for Plant response rating, Rice: 500 g ai/ha, visual rating after 12 to 14 days
Summary of the method: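 Plants were grown to the 1- to 4-leaf stage (2–18 cm) and then treated postemergence, or grown to the 2-leaf stage for the flooded paddy test. They were held in a greenhouse for 12 to 14 days and then scored by eye against controls, where 0 is no effect and 100 is complete control.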

[23] = 125 g ai/ha; 0 is no effect, 100 is complete control; preemergence
[24] = 125 g ai/ha; visual rating, scale 0 (no effect) to 100 (complete control); postemergence
[25] = 500 g ai/ha; visual rating, 0 = no effect, 100 = complete control; preemergence
[26] = postemergence, 500 g ai/ha; scale 0 to 100, 0 is no effect, 100 is complete control
[27] = 125 g ai/ha, 0 is no effect, 100 is complete control, preemergence
[28] = 125 g ai/ha, visual rating, scale 0 (no effect) to 100 (complete control), postemergence
[29] = 500 g ai/ha, visual rating, 0 = no effect, 100 = complete control, preemergence
[30] = postemergence, 500 g ai/ha, scale 0 to 100, 0 is no effect, 100 is complete control
[31] = 125 g ai/ha, scale 0 to 100 (0 no effect, 100 complete control)
[32] = 250 g ai/ha, scale of 0 to 100, 0 is no effect, 100 is complete control
[33] = scale 0 to 100 (0 no effect, 100 complete control)
[34] = 62 g ai/ha, scale 0 to 100 (0 no effect, 100 complete control)
[35] = Postemergence, 500 g ai/ha; visual rating after 13 to 15 days, scale 0 (no effect) to 100 (complete control)
[36] = postemergence, 125 g ai/ha; visual rating, scale 0 (no effect) to 100 (complete control)
[37] = preemergence, 125 g ai/ha; 0 to 100 scale, 0 is no effect, 100 is complete control
[38] = Postemergence, 500 g ai/ha, visual rating after 13 to 15 days, scale 0 (no effect) to 100 (complete control)
[39] = Preemergence, 500 g ai/ha, scale 0 to 100
[40] = postemergence, 125 g ai/ha, visual rating, scale 0 (no effect) to 100 (complete control)
[41] = preemergence, 125 g ai/ha, 0 to 100 scale, 0 is no effect, 100 is complete control
[42] = 125 g ai/ha, scale of 0 to 100, 0 is no effect, 100 is complete control

CCN1N=C(C(C)(C)C)CC1C(=O)Nc1cc(C(=O)N2CCCCC2)ccc1F (racemic) [Compound 331]
Rice plant response rating [1]: 60 | Plant response rating (0 to 100 scale), Velvetleaf [2, 23]: 20 | Velvetleaf plant response rating [2, 24]: 10 | Plant response rating, Velvetleaf [2, 25]: 80 | Velvetleaf plant response rating [2, 26]: 20 | Plant response rating (0 to 100 scale), Barnyardgrass [3, 27]: 60 | Barnyardgrass plant response rating [3, 28]: 10 | Plant response rating, Barnyardgrass [3, 29]: 70 | Barnyardgrass plant response rating [3, 30]: 20 | Sedge, Umbrella plant response rating ([4]; 62 g ai/ha, scale 0 to 100): 0 | Sedge, Umbrella plant response rating [4, 31]: 20 | Sedge, Umbrella plant response rating [4, 32]: 25 | Plant response rating, Sedge, Umbrella [4, 33]: 65 | Plant response rating (0 to 100 scale), Cocklebur [5, 27]: 0 | Cocklebur plant response rating [5, 28]: 10 | Plant response rating, Cocklebur [5, 29]: 0 | Cocklebur plant response rating [5, 30]: 30 | Wheat plant response rating [6, 24]: 20 | Wheat plant response rating [6, 26]: 20 | Plant response rating (0 to 100 scale), Crabgrass, Large [7, 27]: 60 | Crabgrass, Large plant response rating [7, 28]: 10 | Plant response rating, Crabgrass, Large [7, 29]: 80 | Crabgrass, Large plant response rating [7, 30]: 10 | Ducksalad plant response rating [8]: 90 | Barnyardgrass plant response rating [9, 34]: 0 | Barnyardgrass plant response rating [9, 31]: 10 | Barnyardgrass plant response rating [9, 32]: 40 | Plant response rating, Barnyardgrass [9, 33]: 65 | Plant response rating (0 to 100 scale), Surinam Grass [10, 23]: 40 | Surinam Grass plant response rating [10, 24]: 10 | Plant response rating, Surinam Grass [10, 25]: 60 | Surinam Grass plant response rating [10, 26]: 20 | Plant response rating (0 to 100 scale), Pigweed [11, 23]: 40 | Pigweed plant response rating [11, 24]: 10 | Plant response rating, Pigweed [11, 25]: 50 | Pigweed plant response rating [11, 26]: 50 | Oat, Wild plant response rating [12, 24]: 10 | Oat, Wild plant response rating [12, 26]: 30 | Barnyardgrass plant response rating [13]: 80 | Plant response rating (0 to 100 scale), Rice ([14]; 125 g ai/ha, 0 is no effect, 100 is complete control): 30 | Plant response rating, Rice ([14]; 500 g ai/ha, visual rating, 0 = no effect, 100 = complete control): 40 | Plant response rating (0 to 100 scale), Foxtail, Giant [15, 27]: 20 | Foxtail, Giant plant response rating [15, 28]: 0 | Plant response rating, Foxtail, Giant [15, 29]: 80 | Foxtail, Giant plant response rating [15, 30]: 30 | Ducksalad plant response rating ([16]; 62 g ai/ha, scale 0 to 100): 0 | Ducksalad plant response rating [16, 31]: 50 | Ducksalad plant response rating [16, 32]: 65 | Plant response rating, Ducksalad [16, 33]: 85 | Plant response rating (0 to 100 scale), Corn [17, 27]: 20 | Corn plant response rating [17, 28]: 0 | Plant response rating, Corn [17, 29]: 40 | Corn plant response rating [17, 30]: 0 | Sedge, Umbrella plant response rating [18]: 90 | Lambsquarters plant response rating [19, 24]: 60 | Plant response rating, Lambsquarters [19, 25]: 100 | Lambsquarters plant response rating [19, 26]: 70 | Blackgrass plant response rating [20, 24]: 10 | Blackgrass plant response rating [20, 26]: 20 | Plant response rating (0 to 100 scale), Morningglory [21, 23]: 0 | Morningglory plant response rating [21, 24]: 0 | Plant response rating, Morningglory [21, 25]: 0 | Morningglory plant response rating [21, 26]: 10 | Rice plant response rating ([22]; 62 g ai/ha, scale 0 to 100): 0 | Rice plant response rating [22, 31]: 15 | Rice plant response rating [22, 32]: 50 | Plant response rating, Rice [22, 33]: 65

CCn1nc(C(C)(C)C)cc1C(=O)Nc1cc(C(=O)OC)c(OC)cc1F [Compound 75]
Rice plant response rating ([1]; visual rating, 13 to 15 days): 90 | Plant response rating, Velvetleaf [2, 35]: 20 | Velvetleaf plant response rating [2, 36]: 20 | Plant response rating, Velvetleaf [2, 37]: 20 | Plant response rating, Barnyardgrass [3, 38]: 20 | Barnyardgrass plant response rating [3, 39]: 90 | Barnyardgrass plant response rating [3, 40]: 10 | Plant response rating, Barnyardgrass [3, 41]: 50 | Sedge, Umbrella plant response rating [4, 34]: 70 | Sedge, Umbrella plant response rating [4, 42]: 75 | Sedge, Umbrella plant response rating [4, 32]: 80 | Plant response rating, Sedge, Umbrella [4, 33]: 85 | Plant response rating, Cocklebur [5, 38]: 30 | Cocklebur plant response rating [5, 39]: 10 | Cocklebur plant response rating [5, 40]: 10 | Plant response rating, Cocklebur [5, 41]: 0 | Plant response rating, Wheat [6, 35]: 20 | Wheat plant response rating [6, 36]: 10 | Plant response rating, Crabgrass, Large [7, 38]: 10 | Crabgrass, Large plant response rating [7, 39]: 70 | Crabgrass, Large plant response rating [7, 40]: 10 | Plant response rating, Crabgrass, Large [7, 41]: 10 | Ducksalad plant response rating ([8]; visual rating, 13 to 15 days): 90 | Barnyardgrass plant response rating [9, 34]: 0 | Barnyardgrass plant response rating [9, 42]: 25 | Barnyardgrass plant response rating [9, 32]: 65 | Plant response rating, Barnyardgrass [9, 33]: 70 | Plant response rating, Surinam Grass [10, 35]: 20 | Surinam Grass plant response rating [10, 36]: 10 | Plant response rating, Surinam Grass [10, 37]: 30 | Plant response rating, Pigweed [11, 35]: 70 | Pigweed plant response rating [11, 36]: 50 | Plant response rating, Pigweed [11, 37]: 50 | Plant response rating, Oat, Wild [12, 35]: 40 | Oat, Wild plant response rating [12, 36]: 10 | Barnyardgrass plant response rating ([13]; visual rating, 13 to 15 days): 80 | Plant response rating, Rice ([14]; 125 g ai/ha, 0 to 100 scale, 0 is no effect, 100 is complete control): 40 | Plant response rating, Foxtail, Giant [15, 38]: 20 | Foxtail, Giant plant response rating [15, 39]: 90 | Foxtail, Giant plant response rating [15, 40]: 20 | Plant response rating, Foxtail, Giant [15, 41]: 30 | Ducksalad plant response rating [16, 34]: 0 | Ducksalad plant response rating [16, 42]: 30 | Ducksalad plant response rating [16, 32]: 65 | Plant response rating, Ducksalad [16, 33]: 70 | Plant response rating, Corn [17, 38]: 20 | Corn plant response rating [17, 39]: 30 | Corn plant response rating [17, 40]: 10 | Plant response rating, Corn [17, 41]: 0 | Sedge, Umbrella plant response rating ([18]; visual rating, 13 to 15 days): 70 | Plant response rating, Lambsquarters [19, 35]: 40 | Lambsquarters plant response rating [19, 36]: 40 | Plant response rating, Lambsquarters [19, 37]: 20 | Plant response rating, Blackgrass [20, 35]: 30 | Blackgrass plant response rating [20, 36]: 10 | Plant response rating, Morningglory [21, 35]: 50 | Morningglory plant response rating [21, 36]: 20 | Plant response rating, Morningglory [21, 37]: 0 | Rice plant response rating [22, 34]: 0 | Rice plant response rating [22, 42]: 25 | Rice plant response rating [22, 32]: 55 | Plant response rating, Rice [22, 33]: 65
